Experimental data from US4088752A, “Oral composition for plaque and caries inhibition” (Gaba AG, priority 1974, dated 1978).

Key:
Type in all cases: in vivo, Osbourne-Mendel rats
[1] = tested on: Streptococcus mutans OMZ 176; test: Rat caries experiment: smooth surface plaque, smooth surface caries and fissure caries after local application of aqueous test solutions; settings: for Average number per rat of smooth surface plaque extent (PU) / Average number per rat of advanced dentinal fissure lesions (B) / Average number per rat of smooth surface carious units (E): means of 10 animals; for Average number per rat of smooth surface plaque extent (PU): standard error 0.29; for Average number per rat of advanced dentinal fissure lesions (B): standard error 0.94; for Average number per rat of smooth surface carious units (E): standard error 1.81; for cariostatic effects of sodium fluoride and sodium trimetaphosphate together: smooth surface caries, combination of the two
Procedure: To examine the effect of the compounds used according to the present invention, a series of animal experiments were carried out. In these tests an aqueous solution of the test compounds was applied locally to determine its action in inhibiting plaque and caries.
(§1) On day 13 the animals with their dams were transferred to stainless-steel cages and fed powdered Nafag diet. The animals were weaned when 22 days old and distributed at random among the treatments.
(§2) 0.1 ml of the test solutions were applied once daily during the whole 20-day experimental period in which diet 2000a and tap water were available ad libitum. On day 22 the animals were superinfected twice with Streptococcus mutans OMZ 176. Caries, molar surface dissolution rate and fluoride content were assessed acccording to routine procedures.

[2] = Weight gain of rats during the 20-day experimental period; settings: means of 10 animals, standard error 3.4
Procedure: (§3) Groups of 10 Osbourne-Mendel rats, which are particularly suitable for caries-inhibition studies, were subjected to the following treatments:
as §1, §2

[3] = Fluoride content of maxillary molar surfaces; settings: maxillary molars m1 + m2, 15 sec. in 2N hydrochloric acid under agitation; for Fluoride concentration, cumulated layers: first and second cumulated layers, standard error 12.4; for Fluoride concentration, second layer: standard error 10.4; for Fluoride concentration, first layer: standard error 16.6
Procedure: as §3, §2
Fluoride concentrations in the first, the second and the
first and second cumulated layers (ppm F) in the maxillary
molars (m1 + m2, 15 sec. in 2N hydrochloric acid under

[4] = Postmortal rat molar solubility (molar surface dissolution rate); settings: per mand: m1 + m2 in 10 ml 0.025 M acetate buffer pH 4, 60 min., 37° C; standard error 5.7
Procedure: as §2

[5] = rats, 20-day experimental period

| Compound | Average number per rat of smooth surface plaque extent (PU) ([1]; 20-day experimental period) | Average number per rat of advanced dentinal fissure lesions (B) ([1]; 20-day experimental period) | Average number per rat of smooth surface carious units (E) ([1]; 20-day experimental period) | Smooth surface caries (statement) [1, 5] | cariostatic effects of sodium fluoride and sodium trimetaphosphate together [1] | weight gains [2] [g] | Fluoride concentration, cumulated layers [3] [ppm F] | Fluoride concentration, second layer [3] [ppm F] | Fluoride concentration, first layer [3] [ppm F] | Postmortal rat molar solubility [4] [μgP] | further results |
| --- | --- | --- | --- | --- | --- | --- | --- | --- | --- | --- | --- |
| sodium fluoride [Treatment 3] | 2.5 | 9.8 | 9.0 | effective | additive | 65 |  |  |  |  |  |
| N-(2-hydroxyethyl)-2-heptadecen-9-yl-imidazoline orthophosphate [Example 6] |  |  |  |  |  |  |  |  |  |  | Smooth surface plaque, average extent (statement) [1, 5]: significantly lower (PF <0.001) |
| N,N,N'-tris-(7-hydroxyethyl)-N'-octadecyl-1,3-diaminopropanepyrophosphate [Example 7] |  |  |  |  |  |  | 143 | 94 | 187 |  |  |
| O=P1([O-])OP(=O)([O-])OP(=O)([O-])O1.[Na+].[Na+].[Na+] [Treatment 4, sodium trimetaphosphate] | 2.7 | 6.1 | 10.1 | effective | additive | 60 |  |  |  |  |  |
| N,N,N'-tris-(2-hydroxyethyl)-N'-octadecyl-1,3-diaminopropanemonohydrofluoride monoorthophosphate [Treatment 9] |  |  |  |  |  |  | 74 | 53 | 92 | 130 |  |
| N,N,N'-tris-(2-hydroxyethyl)-N'-octadecyl-1,3-diaminopropanediorthophosphate [Treatment 8] |  |  |  |  |  |  |  |  |  | 121 |  |
